Data set [1] deals with neo-antigen-specific CD8+ T cells. The data set is described as follows: Intratumoral injection into established MC38 tumors: tetramer staining of PBMCs. Format: in vivo, C57BL/6 mice. The note with it: MC38 tumor-bearing mice, day 7 after first injection. As for the experimental part:
(§1) C57BL/6 mice were subcutaneously injected with 5×10^5 MC38 colon carcinoma cells (a gift from W. Zou, University of Michigan) into the right flank and randomly sorted for treatment after 9 days when the tumor volumes reached approximately 50-70 mm^3. Fifty μl PBS solution of ASMTNMELM, CpG, ASMTNMELM+CpG, PEI-SS-CSSASMTNMELM+CpG (10 μg ASMTNMELM and 15 μg CpG), or blank PBS (50 μl) were directly injected into tumor every week for total three times. PBMCs were collected on day 7 after the first sample injection and tetramer staining was performed for flow cytometric analysis of neo-antigen-specific CD8+ T cells. The sizes of the tumors were measured every three days using a digital caliper, and the tumor volume was estimated by ellipsoidal calculation as V=(width)^2×length×π/6. The mice were euthanized when the tumors reached the maximum permitted size (1.5 cm in any dimension) or ulcerations occurred.

The subject of a further data set is MC38 tumors. The data set is described as follows: In vivo cancer immunotherapy against established MC38 tumors: tumor volume and survival. Also noted: species or system C57BL/6 mice. The note with it: three weekly intratumoral injections. As for the experimental part: as §1
The subject of data set [2] is BMDCs. The data set is described as follows: BMDC cytotoxicity (CCK-8 viability). Format: cell-based. The note with it: 24 h incubation, concentration as high as 100 μg/ml. As for the experimental part:
(§2) BMDCs were plated at a density of 1×10^5 cells/well in 96 well plates in RPMI 1640 supplemented with 10% FBS and 1% PS, and incubated overnight at 37° C. under 5% CO2. For cytotoxicity assessment, cells were incubated with either free form (CSSASMNTMELM) or PEI conjugate (PEI-SS-CSSASMTNMELM) of the neo-antigen peptide for 24 h at concentrations of 1, 5, 10, 20, 50, 100 μg/ml. The viability was measured by adding CCK-8 to each well of the plate according to manufacturer's instruction followed by absorbance measurement at 450 nm using a microplate reader after 2 h incubation. Relative viability was calculated as to the ratio of the absorbance to the non-sample treated cells (0 μg/ml). To investigate BMDC activation, cells were treated with PBS or PEI-SS-CSSASMTNMELM, PBS+CpG, PEI-SS-CSSASMTNMELM+CpG (2 μg/ml PEI-SS-CSSASMTNMELM and 1 μg/ml CpG) for 2 h. The fresh cell culture media were placed after sample washing and collected for cytokine analysis after further 24 h incubation. The concentration of IL-12p70 in the media was measured using ELISA kit by following the manufacturer's instruction.

In data set [3] the test system is BMDCs. The data set is described as follows: BMDC activation: IL-12p70 secretion (ELISA). The note with it: alone, w/o CpG; 2 μg/ml, 2 h. In kind it is cell-based. As for the experimental part:
as §2

Data set [4] relates to BMDCs. The data set is described as follows: BMDC activation: expression of co-stimulatory markers CD86 and CD40 by flow cytometry. The settings on record: conjugate alone, w/o CpG; 1% modification, 2 nmol SIINFEKL/ml, 24 h. Format: cell-based, C57BL/6 mice. As for the experimental part:
(§3) Femur and tibia were harvested from C57BL/6 mice. Cells were collected by flushing bone marrow with a syringe, passing the cell suspension through a cell strainer (mesh size=40 μm), followed by centrifugation (200×g, 5 min). Cells were then seeded into non-tissue culture treated petri-dishes at a density of 2×10^6 cells/ml in DC culture media (RPMI 1640 supplemented with 10% FBS, 1% penicillin-streptomycin, 50 μM β-mercaptoethanol, and 20 ng/ml GM-CSF), cultured at 37° C. with 5% CO2. Culture media were refreshed on days 3, 6, and 8, and BMDCs were used on days 8-12.
(§4) BMDCs were seeded at a density of 8×10^5 cells/ml into 12-well plates. Cells were incubated with PGA120k-MAL-CSSSIINFEKL or PGA120k-SS-CSSSIINFEKL (1% modification of carboxyl groups, 2 nmol SIINFEKL/ml) w/or w/o 0.5 μg/ml CpG in 1 ml BMDC culture media for 24 h. Cells were harvested, blocked with anti-CD16/32 at room temperature for 10 min, and then stained with anti-CD11c-PECy7, anti-CD40-APC, anti-CD86-PE, or anti-SIINFEKL-H-2K^b-PE at room temperature for 30 min. Finally, cells were washed and resuspended in 2 μg/ml DAPI solution and analyzed by a flow cytometer (Cyan 5, Beckman Coulter).
On the technique in general: In flow cytometry, cells or beads pass a laser one at a time.

The subject of data set [5] is BMDCs. The data set is described as follows: Antigen cross-presentation: presentation of SIINFEKL on DCs by flow cytometry. Format: cell-based, C57BL/6 mice. The note with it: 2 nmol SIINFEKL/ml, 24 h. The protocol: as §3, §4
For a further data set, the system named is OT-I T cells. The data set is described as follows: Proliferation of antigen-specific CD8+ T cells in vitro (CFSE dilution). In kind it is cell-based, OT-I mice. The settings on record: BMDCs pre-activated 24 h, 0.5 nmol SIINFEKL/ml, in the presence of 0.5 μg/ml CpG; co-culture 3 days. As for the experimental part:
SIINFEKL-specific CD8^+ T cells were isolated from OT-I mice using an EasySep™ Mouse CD8^+ T Cell Isolation Kit (STEMCELL Technologies, Cambridge, Mass.), and stained by CFSE. 5×10^4 BMDCs were seeded into 96-well plates, and incubated with PGA120k conjugates (1% modification of carboxyl groups, 0.5 nmol SIINFEKL/ml) w/or w/o 0.5 μg/ml CpG for 24 h. BMDCs were then washed by PBS, followed by co-culture with 5×10^4 CFSE-labeled OT-I T cells for 3 days. Cells were then harvested, blocked with anti-CD16/32, and stained with anti-CD8-APC on ice for 30 min. Cells were washed and resuspended in 2 μg/ml DAPI solution and analyzed for fluorescence dilutions of CFSE by flow cytometry.

Where no end group is shown, it is not given here. A value given as a limit tells only on which side of the number the result lay.

As to 5′-tccatgacgttcctgacgtt-3′ [CpG], the “neo-antigen-specific CD8+ T cell response” value in data set [1] was “failed to elicit”. In the data set with MC38 tumors, the survival rates is recorded as approximately 20% and the tumor progression entry is “slowed tumor progression”.
For the substance ASMTNMELM [neo-antigen], the “neo-antigen-specific CD8+ T cell response” value in data set [1] is “failed to elicit”. Further, in the data set with MC38 tumors, the “time by which all animals succumbed to tumors” value is not above 50 days.
With “CSSASMTNMELM [free peptide, CSSASMTNMELM]”, in the data set on BMDCs [2], the BMDC viability result is given as “maintained their viability”.
Take “PEI-SS-CSSASMTNMELM: PEI (MW 25,000), PEGylated, disulfide-linked via SPDP to neo-antigen peptide CSSASMTNMELM (PEGylated PEI disulfide-linked via SPDP)”: the BMDC viability result in the data set on BMDCs [2] is reported as “maintained their viability”. In the data set with BMDCs [3], the “activation of BMDCs (secretion of IL-12p70)” value was “failed to induce activation of BMDCs”.
Turning to “PGA-MAL-CSSSIINFEKL: 120 kD poly(L-glutamic acid) linked by non-sensitive maleimide-thiol bond to peptide CSSSIINFEKL, 1% modification of carboxyl groups (not fully specified; poly(L-glutamic acid) 120 kD maleimide-thiol conjugate)”, the “activation of DCs (expression of CD86 and CD40)” value with BMDCs [4] is reported as “failed to activate DCs”.
Take “PGA-SS-CSSSIINFEKL: 120 kD poly(L-glutamic acid) linked by reduction-sensitive disulfide bond to peptide CSSSIINFEKL, 1% modification of carboxyl groups (not fully specified; poly(L-glutamic acid) 120 kD disulfide conjugate)”: the “CD40 expression in DCs” value in the data set on BMDCs [4] is on record as “slightly increased CD40 expression”. In addition, the “presentation of SIINFEKL on DCs” value in the data set with BMDCs [5] (w/o CpG, compared with soluble peptide and PGA-MAL-CSSSIINFEKL) is recorded as “significantly higher presentation of SIINFEKL on DCs”; in the data set with BMDCs [5] (with 0.5 μg/ml CpG), “further increased by CpG”.
“SIINFEKL [soluble peptide, model antigen peptide]”: in the data set with OT-I T cells, the “proliferation of OT-I T cells” value was more than 60%.

These data come from patent US20190374650A1, “COMPOSITIONS AND METHODS FOR DELIVERY OF POLYMER/BIOMACROMOLECULE CONJUGATES” (THE REGENTS OF THE UNIVERSITY OF MICHIGAN, priority 2017, published 2019).
